Test results as given in patent US20230085307A1, “PYRIDAZINONE COMPOUND AND HERBICIDE” (NISSAN CHEMICAL CORPORATION, priority 2019, published 2023).

Tests used:
[1] = tested on: redroot pigweed; test: Test Example 5: herbicidal effect by foliage application, plastic box (Table 20, symbol N); type: in vivo, redroot pigweed (Amaranthus retroflexus); conditions: foliage application, 320 g/ha, three weeks after application
In short: (§1)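 Plants sown in sterilized diluvial soil and grown 14 days in a greenhouse at 25° C to 30° C, then sprayed on the foliage with the compound's emulsion diluted in water to a predetermined herbicide amount. Injury to weeds and crops scored three weeks after application on a visual rating scale.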

[2] = tested on: barnyard grass; test: Test Example 5: herbicidal effect by foliage application, plastic box (Table 20, symbol H); type: in vivo, barnyard grass (Echinochloa crus-galli); conditions: foliage application, 320 g/ha, three weeks after application
In short: as §1

[3] = tested on: wild oat; test: Test Example 5: herbicidal effect by foliage application, plastic box (Table 20, symbol I); type: in vivo, wild oat (Avena fatua); conditions: foliage application, 320 g/ha, three weeks after application
In short: as §1

[4] = tested on: Japanese bulrush; test: Test Example 1: herbicidal activity, application before weed generation under submerged conditions (Table 16, symbol B); type: in vivo, Japanese bulrush (Schoenoplectus juncoides); conditions: amount of applied herbicide 320 g/ha
In short: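 Emulsion formulation, water-diluted to set dose, was put onto the flooded surface (4 cm depth, alluvial soil) the same day weeds were sown and 2.5-leaf rice transplanted. After 3 weeks at 25-30 °C under glass, each species was rated 0 (≤5% kill) to 5 (≥90% kill).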

[5] = tested on: Japanese bulrush; test: Test Example 2: herbicidal activity, application during weed generation under submerged conditions (Table 17, symbol B); type: in vivo, Japanese bulrush (Schoenoplectus juncoides); conditions: AAH 320 g/ha; application during weed generation, submerged conditions
In short: (§2)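 In this pot test, flooded alluvial soil (water depth 4 cm) holds all three species sown as a mixture. Once seedlings have one to two leaves, the compound's emulsion, thinned with water to the intended dose, is poured on the water; grading follows after three weeks on the earlier criteria.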

[6] = tested on: wild oat; test: Test Example 4: herbicidal effect by soil treatment (Table 19, symbol I); type: in vivo, wild oat (Avena fatua); conditions: amount of applied herbicide 320 g/ha
In short: (§3)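 Three weeks of greenhouse growth at 25° C. to 30° C. followed a uniform surface spray of water-diluted emulsion at a predetermined herbicide amount. Seeds had been sown beforehand under about 1.5 cm of sterilized diluvial soil. Grading followed criteria set out in an earlier test.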

[7] = tested on: blackgrass; test: Test Example 5: herbicidal effect by foliage application, plastic box (Table 20, symbol J); type: in vivo, blackgrass (Alopecurus myosuroides); conditions: foliage application, 320 g/ha, three weeks after application
In short: as §1

[8] = tested on: southern crabgrass; test: Test Example 4: herbicidal effect by soil treatment (Table 19, symbol F); type: in vivo, southern crabgrass (Digitaria ciliaris); conditions: amount of applied herbicide 320 g/ha
In short: as §3

[9] = tested on: green foxtail; test: Test Example 4: herbicidal effect by soil treatment (Table 19, symbol G); type: in vivo, green foxtail (Setaria viridis); conditions: amount of applied herbicide 320 g/ha
In short: as §3

[10] = tested on: blackgrass; test: Test Example 4: herbicidal effect by soil treatment (Table 19, symbol J); type: in vivo, blackgrass (Alopecurus myosuroides); conditions: amount of applied herbicide 320 g/ha
In short: as §3

[11] = tested on: redroot pigweed; test: Test Example 4: herbicidal effect by soil treatment (Table 19, symbol N); type: in vivo, redroot pigweed (Amaranthus retroflexus); conditions: amount of applied herbicide 320 g/ha
In short: as §3

[12] = tested on: rice flat sedge; test: Test Example 3: herbicidal effect by foliage application, Wagner pot (Table 18, symbol E); type: in vivo, rice flat sedge (Cyperus iria); conditions: 320 g/ha
In short: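 Plants were sown in alluvial soil held under 0.1–0.5 cm standing water and grown 14 days in a greenhouse at 25–30 °C. An emulsifiable formulation, water-diluted to the set dose, was then sprayed onto the foliage, and effects were scored three weeks later using previously defined criteria.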

[13] = tested on: chickweed; test: Test Example 4: herbicidal effect by soil treatment (Table 19, symbol P); type: in vivo, common chickweed (Stellaria media); conditions: amount of applied herbicide 320 g/ha
In short: as §3

[14] = tested on: oval-leafed pondweed; test: Test Example 2: herbicidal activity, application during weed generation under submerged conditions (Table 17, symbol C); type: in vivo, oval-leafed pondweed (Monochoria vaginalis); conditions: AAH 320 g/ha; application during weed generation, submerged conditions
In short: as §2

[15] = tested on: late watergrass; test: Test Example 2: herbicidal activity, application during weed generation under submerged conditions (Table 17, symbol A); type: in vivo, late watergrass (Echinochloa oryzicola); conditions: AAH 320 g/ha; application during weed generation, submerged conditions
In short: as §2

[16] = tested on: velvetleaf; test: Test Example 4: herbicidal effect by soil treatment (Table 19, symbol M); type: in vivo, velvetleaf (Abutilon theophrasti); conditions: amount of applied herbicide 320 g/ha
In short: as §3

[17] = tested on: chickweed; test: Test Example 5: herbicidal effect by foliage application, plastic box (Table 20, symbol P); type: in vivo, common chickweed (Stellaria media); conditions: foliage application, 320 g/ha, three weeks after application
In short: as §1

COc1ccccc1-c1sc2cc(OCC(F)(F)F)ccc2c1-c1c(O)c(C)nn(C)c1=O [Compound No. 3-116, 5-hydroxy-4-(2-(2-methoxyphenyl)-6-(2,2,2-trifluoroethoxy)benzo[b]thiophen-3-yl)-2,6-di methylpyridazin-3 (2H)-one]
N: redroot pigweed, herbicidal effect grade [1]: 5 (Herbicidal rate of 90% or more (almost completely withered))
H: barnyard grass, herbicidal effect grade [2]: 5 (Herbicidal rate of 90% or more (almost completely withered))
I: wild oat, herbicidal effect grade [3]: 5 (Herbicidal rate of 90% or more (almost completely withered))
Herbicidal effect, B: Japanese bulrush [4]: 5 (Herbicidal rate of 90% or more (almost completely withered))
herbicidal effect rating, B: Japanese bulrush [5]: 3 (Herbicidal rate of 40% or more and less than 70%)
I: wild oat, herbicidal effect grade [6]: 3 (Herbicidal rate of 40% or more and less than 70%)
J: blackgrass, herbicidal effect grade [7]: 5 (Herbicidal rate of 90% or more (almost completely withered))
F: southern crabgrass, herbicidal effect grade [8]: 5 (Herbicidal rate of 90% or more (almost completely withered))
G: green foxtail, herbicidal effect grade [9]: 5 (Herbicidal rate of 90% or more (almost completely withered))
J: blackgrass, herbicidal effect grade [10]: 4 (Herbicidal rate of 70% or more and less than 90%)
N: redroot pigweed, herbicidal effect grade [11]: 5 (Herbicidal rate of 90% or more (almost completely withered))
herbicidal effect on rice flat sedge (E) [12]: 5 (Herbicidal rate of 90% or more (almost completely withered))
P: chickweed, herbicidal effect grade [13]: 4 (Herbicidal rate of 70% or more and less than 90%)
herbicidal effect rating, C: oval-leafed pondweed [14]: 4 (Herbicidal rate of 70% or more and less than 90%)
herbicidal effect rating, A: late watergrass [15]: 4 (Herbicidal rate of 70% or more and less than 90%)
M: velvetleaf, herbicidal effect grade [16]: 4 (Herbicidal rate of 70% or more and less than 90%)
P: chickweed, herbicidal effect grade [17]: 5 (Herbicidal rate of 90% or more (almost completely withered))
